Test results reported in US6936585B2, “Corticotropin releasing factor 2 receptor agonists” (priority 2002, dated 2005).
Peptide text beside a SMILES is read from it.

Tests used:
CRF2R = target: T1, CRF2R (Homo sapiens, UniProt Q13324); assay: CRF2R agonist activation (EC50 / Emax), called comparative CRF binding; assay type: cell-based; details: for EC50: read-out: CRF2R EC50; for Emax: read-out: CRF2R Emax
T1 sequence (Q13324 1-411): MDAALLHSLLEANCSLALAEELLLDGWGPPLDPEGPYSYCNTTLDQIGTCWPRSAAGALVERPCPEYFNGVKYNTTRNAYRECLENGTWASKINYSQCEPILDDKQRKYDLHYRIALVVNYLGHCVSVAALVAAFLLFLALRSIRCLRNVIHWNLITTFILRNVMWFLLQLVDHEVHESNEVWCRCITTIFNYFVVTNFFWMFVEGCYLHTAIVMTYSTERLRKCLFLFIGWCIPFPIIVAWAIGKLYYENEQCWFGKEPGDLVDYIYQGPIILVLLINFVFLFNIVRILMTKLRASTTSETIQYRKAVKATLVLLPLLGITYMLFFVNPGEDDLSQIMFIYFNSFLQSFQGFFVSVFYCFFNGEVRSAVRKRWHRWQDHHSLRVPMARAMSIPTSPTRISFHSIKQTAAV
Outline: (§1)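 Read-out is Gαs-driven cAMP induction, quantified directly in lysates or through CRE-reporter gene expression, after treating CRF1R- or CRF2R-expressing cells with peptide. Vehicle-treated cells serve as the comparison.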

CRF1R = target: T2, CRF1R (Homo sapiens, UniProt P34998); assay: CRF1R agonist activation (EC50 / Emax), called comparative CRF binding; assay type: cell-based; details: for EC50: read-out: CRF1R EC50; for Emax: read-out: CRF1R Emax
T2 sequence (P34998 24-415): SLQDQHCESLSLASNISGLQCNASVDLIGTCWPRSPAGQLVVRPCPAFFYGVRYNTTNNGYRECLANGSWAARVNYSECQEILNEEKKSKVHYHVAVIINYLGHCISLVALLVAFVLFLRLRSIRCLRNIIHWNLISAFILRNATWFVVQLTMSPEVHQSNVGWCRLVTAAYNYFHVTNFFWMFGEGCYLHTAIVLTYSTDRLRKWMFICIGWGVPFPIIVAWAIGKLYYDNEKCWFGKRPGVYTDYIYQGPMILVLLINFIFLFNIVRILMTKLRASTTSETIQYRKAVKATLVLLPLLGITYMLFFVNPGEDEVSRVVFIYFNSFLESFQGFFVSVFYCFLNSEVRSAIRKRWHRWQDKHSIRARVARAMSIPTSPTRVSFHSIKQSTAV
Outline: as §1

SMILES: CC[C@H](C)[C@H](N)C(=O)N[C@H](C(=O)N[C@@H](CC(C)C)C(=O)N[C@@H](CO)C(=O)N[C@@H](CC(C)C)C(=O)N[C@@H](CCC(=O)O)C(=O)N[C@H](C(=O)N1CCC[C@H]1C(=O)N[C@H](C(=O)NCC(=O)N[C@@H](CC(C)C)C(=O)N[C@@H](CC(C)C)C(=O)N[C@@H](CCC(N)=O)C(=O)N[C@H](C(=O)N[C@@H](CC(C)C)C(=O)N[C@@H](CC(C)C)C(=O)N[C@@H](CCC(=O)O)C(=O)N[C@@H](CCC(N)=O)C(=O)N[C@@H](C)C(=O)N[C@@H](CCCNC(=N)N)C(=O)N[C@@H](C)C(=O)N[C@@H](CCCNC(=N)N)C(=O)N[C@@H](C)C(=O)N[C@@H](C)C(=O)N[C@@H](CCCNC(=N)N)C(=O)N[C@@H](CCC(=O)O)C(=O)N[C@@H](CCC(N)=O)C(=O)N[C@@H](C)C(=O)N[C@H](C(=O)N[C@H](C(=O)N[C@@H](CC(N)=O)C(=O)N[C@@H](C)C(=O)N[C@@H](CCCNC(=N)N)C(=O)N[C@H](C(=O)N[C@@H](CC(C)C)C(=O)N[C@@H](C)C(=O)N[C@@H](CCCNC(=N)N)C(=O)N[C@H](C(N)=O)C(C)C)[C@@H](C)CC)[C@@H](C)O)[C@@H](C)O)[C@@H](C)CC)[C@@H](C)CC)C(C)C)C(C)C [compound 120] (H-IVLSLEVPIGLLQILLEQARARAAREQATTNARILARV-NH2; N-terminus assumed)
- EC50 (CRF2R): 69.9 nM
- Emax (CRF2R): 100%
- EC50 (CRF1R): ≥ 100 nM
- Emax (CRF1R): 7%

SMILES: CC[C@H](C)[C@H](N)C(=O)N[C@H](C(=O)N[C@@H](CC(C)C)C(=O)N[C@@H](CO)C(=O)N[C@@H](CC(C)C)C(=O)N[C@@H](CC(=O)O)C(=O)N[C@H](C(=O)N1CCC[C@H]1C(=O)N[C@H](C(=O)NCC(=O)N[C@@H](CC(C)C)C(=O)N[C@@H](CC(C)C)C(=O)N[C@@H](CCC(N)=O)C(=O)N[C@H](C(=O)N[C@@H](CC(C)C)C(=O)N[C@@H](CC(C)C)C(=O)N[C@@H](CCC(=O)O)C(=O)N[C@@H](CCC(N)=O)C(=O)N[C@@H](C)C(=O)N[C@@H](CCCNC(=N)N)C(=O)N[C@@H](C)C(=O)N[C@@H](CCC(=O)O)C(=O)N[C@@H](C)C(=O)N[C@@H](C)C(=O)N[C@@H](CCCNC(=N)N)C(=O)N[C@@H](CCC(=O)O)C(=O)N[C@@H](CCC(N)=O)C(=O)N[C@@H](C)C(=O)N[C@H](C(=O)N[C@H](C(=O)N[C@@H](CC(N)=O)C(=O)N[C@@H](C)C(=O)N[C@@H](CCCNC(=N)N)C(=O)N[C@H](C(=O)N[C@@H](CC(C)C)C(=O)N[C@@H](C)C(=O)N[C@@H](CCCNC(=N)N)C(=O)N[C@H](C(N)=O)C(C)C)[C@@H](C)CC)[C@@H](C)O)[C@@H](C)O)[C@@H](C)CC)[C@@H](C)CC)C(C)C)C(C)C [compound 122] (H-IVLSLDVPIGLLQILLEQARAEAAREQATTNARILARV-NH2; N-terminus assumed)
- Emax (CRF2R): 97%
- Emax (CRF1R): 10.7%

SMILES: CC[C@H](C)[C@H](N)C(=O)N[C@H](C(=O)N[C@@H](CC(C)C)C(=O)N[C@@H](CO)C(=O)N[C@@H](CC(C)C)C(=O)N[C@@H](CC(=O)O)C(=O)N[C@H](C(=O)N1CCC[C@H]1C(=O)N[C@H](C(=O)NCC(=O)N[C@@H](CC(C)C)C(=O)N[C@@H](CC(C)C)C(=O)N[C@@H](CCC(N)=O)C(=O)N[C@H](C(=O)N[C@@H](CC(C)C)C(=O)N[C@@H](CC(C)C)C(=O)N[C@@H](CCC(=O)O)C(=O)N[C@@H](CCC(N)=O)C(=O)N[C@@H](C)C(=O)N[C@@H](CCCNC(=N)N)C(=O)N[C@@H](CCC(N)=O)C(=O)N[C@@H](CCC(=O)O)C(=O)N[C@@H](C)C(=O)N[C@@H](C)C(=O)N[C@@H](CCCNC(=N)N)C(=O)N[C@@H](CCC(=O)O)C(=O)N[C@@H](CCC(N)=O)C(=O)N[C@@H](C)C(=O)N[C@H](C(=O)N[C@H](C(=O)N[C@@H](CC(N)=O)C(=O)N[C@@H](C)C(=O)N[C@@H](CCCNC(=N)N)C(=O)N[C@H](C(=O)N[C@@H](CC(C)C)C(=O)N[C@@H](C)C(=O)N[C@@H](CCCNC(=N)N)C(=O)N[C@H](C(N)=O)C(C)C)[C@@H](C)CC)[C@@H](C)O)[C@@H](C)O)[C@@H](C)CC)[C@@H](C)CC)C(C)C)C(C)C [compound 123] (H-IVLSLDVPIGLLQILLEQARQEAAREQATTNARILARV-NH2; N-terminus assumed)
- Emax (CRF2R): 93.8%
- Emax (CRF1R): 9.6%

SMILES: CC[C@H](C)[C@H](N)C(=O)N[C@H](C(=O)N[C@@H](CC(C)C)C(=O)N[C@@H](CO)C(=O)N[C@@H](CC(C)C)C(=O)N[C@@H](CC(=O)O)C(=O)N[C@H](C(=O)N1CCC[C@H]1C(=O)N[C@H](C(=O)NCC(=O)N[C@@H](CC(C)C)C(=O)N[C@@H](CC(C)C)C(=O)N[C@@H](CCC(N)=O)C(=O)N[C@H](C(=O)N[C@@H](CC(C)C)C(=O)N[C@@H](CC(C)C)C(=O)N[C@@H](CCC(=O)O)C(=O)N[C@@H](CCC(N)=O)C(=O)N[C@@H](C)C(=O)N[C@@H](CCCCN)C(=O)N[C@@H](CCC(N)=O)C(=O)N[C@@H](CCC(=O)O)C(=O)N[C@@H](C)C(=O)N[C@@H](C)C(=O)N[C@@H](CCCNC(=N)N)C(=O)N[C@@H](CCC(=O)O)C(=O)N[C@@H](CCC(N)=O)C(=O)N[C@@H](C)C(=O)N[C@H](C(=O)N[C@H](C(=O)N[C@@H](CC(N)=O)C(=O)N[C@@H](C)C(=O)N[C@@H](CCCNC(=N)N)C(=O)N[C@H](C(=O)N[C@@H](CC(C)C)C(=O)N[C@@H](C)C(=O)N[C@@H](CCCNC(=N)N)C(=O)N[C@H](C(N)=O)C(C)C)[C@@H](C)CC)[C@@H](C)O)[C@@H](C)O)[C@@H](C)CC)[C@@H](C)CC)C(C)C)C(C)C [compound 124] (H-IVLSLDVPIGLLQILLEQAKQEAAREQATTNARILARV-NH2; N-terminus assumed)
- EC50 (CRF2R): 3.49 nM
- Emax (CRF2R): 94%
- EC50 (CRF1R): > 100 nM
- Emax (CRF1R): 6%

SMILES: CC[C@H](C)[C@H](N)C(=O)N[C@H](C(=O)N[C@@H](CC(C)C)C(=O)N[C@@H](CO)C(=O)N[C@@H](CC(C)C)C(=O)N[C@@H](CC(=O)O)C(=O)N[C@H](C(=O)N1CCC[C@H]1C(=O)N[C@H](C(=O)NCC(=O)N[C@@H](CC(C)C)C(=O)N[C@@H](CC(C)C)C(=O)N[C@@H](CCC(N)=O)C(=O)N[C@H](C(=O)N[C@@H](CC(C)C)C(=O)N[C@@H](CC(C)C)C(=O)N[C@@H](CCC(=O)O)C(=O)N[C@@H](CCC(N)=O)C(=O)N[C@@H](CCC(=O)O)C(=O)N[C@@H](CCCCN)C(=O)N[C@@H](CCC(N)=O)C(=O)N[C@@H](CCC(=O)O)C(=O)N[C@@H](C)C(=O)N[C@@H](C)C(=O)N[C@@H](CCCNC(=N)N)C(=O)N[C@@H](CCC(=O)O)C(=O)N[C@@H](CCC(N)=O)C(=O)N[C@@H](C)C(=O)N[C@H](C(=O)N[C@H](C(=O)N[C@@H](CC(N)=O)C(=O)N[C@@H](C)C(=O)N[C@@H](CCCNC(=N)N)C(=O)N[C@H](C(=O)N[C@@H](CC(C)C)C(=O)N[C@@H](C)C(=O)N[C@@H](CCCNC(=N)N)C(=O)N[C@H](C(N)=O)C(C)C)[C@@H](C)CC)[C@@H](C)O)[C@@H](C)O)[C@@H](C)CC)[C@@H](C)CC)C(C)C)C(C)C [compound 125] (H-IVLSLDVPIGLLQILLEQEKQEAAREQATTNARILARV-NH2; N-terminus assumed)
- Emax (CRF2R): 99%
- Emax (CRF1R): 9%

SMILES: CC[C@H](C)[C@H](N)C(=O)N[C@H](C(=O)N[C@@H](CC(C)C)C(=O)N[C@@H](CO)C(=O)N[C@@H](CC(C)C)C(=O)N[C@@H](CC(=O)O)C(=O)N[C@H](C(=O)N1CCC[C@H]1C(=O)N[C@H](C(=O)NCC(=O)N[C@@H](CC(C)C)C(=O)N[C@@H](CC(C)C)C(=O)N[C@@H](CCC(N)=O)C(=O)N[C@H](C(=O)N[C@@H](CC(C)C)C(=O)N[C@@H](CC(C)C)C(=O)N[C@@H](CCC(=O)O)C(=O)N[C@@H](CCC(N)=O)C(=O)N[C@H](C(=O)N[C@@H](CCCNC(=N)N)C(=O)N[C@@H](C)C(=O)N[C@@H](CC(=O)O)C(=O)N[C@@H](C)C(=O)N[C@@H](C)C(=O)N[C@@H](CCCNC(=N)N)C(=O)N[C@@H](CCC(=O)O)C(=O)N[C@@H](CCC(N)=O)C(=O)N[C@@H](C)C(=O)N[C@H](C(=O)N[C@H](C(=O)N[C@@H](CC(N)=O)C(=O)N[C@@H](C)C(=O)N[C@@H](CCCNC(=N)N)C(=O)N[C@H](C(=O)N[C@@H](CC(C)C)C(=O)N[C@@H](C)C(=O)N[C@@H](CCCNC(=N)N)C(=O)N[C@H](C(N)=O)C(C)C)[C@@H](C)CC)[C@@H](C)O)[C@@H](C)O)[C@@H](C)O)[C@@H](C)CC)[C@@H](C)CC)C(C)C)C(C)C [compound 126] (H-IVLSLDVPIGLLQILLEQTRADAAREQATTNARILARV-NH2; N-terminus assumed)
- EC50 (CRF2R): 13 nM
- Emax (CRF2R): 91%
- EC50 (CRF1R): > 100 nM
- Emax (CRF1R): 7%
